Values of other authors as cited in patent US20250319084A1, “ENDOCRINE THERAPY AND ABEMACICLIB COMBINATION FOR THE ADJUVANT TREATMENT OF NODE-POSITIVE, EARLY STAGE, HORMONE RECEPTOR-POSITIVE, HUMAN EPIDERMAL GROWTH FACTOR RECEPTOR 2-NEGATIVE BREAST CANCER” (Eli Lilly and Company, priority 2017, published 2025).
Where two headings read alike, the source gives them in different places.

How the values were obtained:
[1] = test system: HR+metastatic breast cancer; settings: JPBA Phase 1b, continuously dosed single agent, across dose levels, heavily pretreated HR+ metastatic breast cancer refractory to endocrine therapy
[2] = test system: HR+metastatic breast cancer; settings: MONARCH 1 Phase 2, single agent, 200-mg dose twice daily, heavily pretreated HR+ metastatic breast cancer refractory to endocrine therapy
[3] = test system: HR+mBC
[4] = test system: early neoadjuvant breast cancer; settings: 150 mg twice daily, as monotherapy and in combination with anastrozole
[5] = test system: human cancer xenografts, including breast cancer; settings: multiple murine xenograft models for human cancer
[6] = nonclinical species
[7] = test system: 46 breast cancer cell lines; settings: panel of 46 breast cancer cell lines representing known molecular subgroups
[8] = test system: HR+ early breast cancer involving axillary lymph nodes

| SMILES | response rate [1] | response rate [2] | tolerability ([3]; JPBH Phase 1b, combined with standard endocrine therapies) | most common adverse events ([3]; JPBH, abemaciclib plus endocrine therapy, predominantly low-grade severity, appear dose-dependent) | safety profile [4] | reduction of tumor cell proliferation marker (Ki67 index) ([4]; versus anastrozole alone) | tumor growth inhibition [5] | toxicity profile [6] | growth inhibition in vitro (sensitivity by subgroup) [7] | 4-year disease-free survival ([8]; BIG 1-98, patients with higher Ki67 values (>11%)) | 4-year disease-free survival ([8]; BIG 1-98, patients with low (≤11%) Ki67 levels at baseline) |
| --- | --- | --- | --- | --- | --- | --- | --- | --- | --- | --- | --- |
| CCN1CCN(Cc2ccc(Nc3ncc(F)c(-c4cc(F)c5nc(C)n(C(C)C)c5c4)n3)nc2)CC1 [Abemaciclib, [5-(4-ethyl-piperazin-1-ylmethyl)-pyridin-2-yl]-[5-fluoro-4-(7-fluoro-3-isopropyl-2-methyl-3H-benzoimidazol-5-yl)-pyrimidin-2-yl]-amine] | 33.3% | 19.7% | tolerable | fatigue, nausea, diarrhea, leukopenia, lymphopenia, neutropenia, and anemia | acceptable safety profile | to a significantly greater extent than anastrozole alone | significantly inhibit tumor growth | acceptable toxicity profile | sensitivity to CDK4 and CDK6 inhibition is greater in ER+breast cancers with luminal histology | – | – |
| N#Cc1ccc(C(c2ccc(C#N)cc2)n2cncn2)cc1 [letrozole] | – | – | – | – | – | – | – | – | – | 85% | 93% |
